{"source": "paper PMC9410468", "about": "(Marine Drugs, 2022)", "origin": "cited, not measured here", "test_system": "rats", "details": "rats; selective α3β4 nAChR antagonists; cited from earlier work", "source_text": "In the mammalian brain, the medial habenula (MHB) expresses high nAChR levels. Recently, α3-containing nAChRs present in the medial habenula have attracted substantial attention because of their potential role in influencing nicotine addiction. In addition, recent studies have shown that the gene polymorphism of the α3 and β4 subunits in vivo are related to nicotine addiction and drug abuse. The α3β4 nAChR subtype is mainly located in the MHB, […] (IPN), and fasciculus retroflexus (FR) of the rat brain. In addition, it is also expres ..."}
{"smiles": "COCC[C@H]1CC2CN3CCc4c([nH]c5ccccc45)[C@](C(=O)OC)(C2)[C@H]13", "note": "[18-methoxycoronaridine (18-MC), 18-methoxycoronaridine]", "values": [{"measurement": "effect on nicotine self-administration (in words)", "value": "reduce nicotine self-administration in rats"}]}
